According to US20260285863A1, “COMPOUNDS CAPABLE OF MODULATING GPR65” (Pathios Therapeutics Limited, priority 2023, published 2026):

Biological target: T1, human recombinant GPR65 (Homo sapiens, UniProt Q8IYL9)
T1 construct: host or cells: 1321N1 human astrocytoma cells (1321N1-hrGPR65)
Assay: Human GPR65 cAMP HTRF antagonist assay
Format: cell-based
Details: 1321N1-hrGPR65 cells, assay pH 7.2, cAMP HTRF; read-out: hGPR65 IC50
Text: The “Human GPR65 cyclic adenosine monophosphate (cAMP) Homogeneous Time Resolved Fluorescence (HTRF) antagonist assay”, or simply “cAMP assay”, as described in the accompanying examples, can be used to measure the potency of GPR65 modulators, which is expressed as the concentration of compound required to reduce the increase in cAMP concentration upon GPR65 activation by 50% (i.e. an IC50).
Human GPR65 Cyclic Adenosine Monophosphate (cAMP) Homogeneous Time Resolved Fluorescence (HTRF) Antagonist Assay Procedure
IC50data was obtained by the following procedure:
1321N1 human astrocytoma cells stably expressing human recombinant GPR65 (1321N1-hrGPR65 cells, EuroscreenFast) were cultured according to the vendor's instructions.
Compounds were tested for their ability to antagonise GPR65, through measuring the concentration of cytoplasmic cAMP following treatment of the cells at a pH of 7.2 to activate GPR65 signalling and addition of the compound to be tested. The extent to which the expected rise in cAMP concentration upon GPR65 activation was suppressed by the added compound is indicative of its potency. The assay was carried out according to EuroscreenFast assay Methodology as follows.
On the day of the assay, test compounds were added to 384-well, low volume, white microtiter plates by acoustic dispensing. KRH buffer (5 mM KCl, 1.25 mM MgSO4, 124 mM NaCl, 25 mM HEPES, 13.3 mM Glucose, 1.25 mM KH2PO4 and 1.45 mM CaCl2) was adjusted to pH 6.5, pH 7.6 and pH 8.4 by adding NaOH. 1321N1-hGPR65 cells were rapidly thawed and diluted in KRH, pH 7.6 prior to centrifugation at 300×g for 5 min and resuspension in assay buffer (KRH, pH 7.6, supplemented with 1 mM 3-isobutyl-1-methylxanthine (IBMX) and 200 μM ethylenediaminetetraacetic acid (EDTA)). Cells were added to assay plates at a density of 2,000 cells per well in a volume of […]. Assay plates were briefly centrifuged at 100×g and then incubated at room temperature for 30 min. Cells were stimulated by the addition of 5 μL KRH, pH 6.5, to achieve an assay pH of 7.2, while control wells received […] KRH, pH 8.4 to achieve an assay pH of 7.9. Assay plates were briefly centrifuged at 100×g and then incubated at room temperature for 30 min.
Accumulation of cAMP was detected by cAMP HTRF kit (Cisbio). d2-labeled cAMP and cryptate-labeled anti-cAMP antibody in Lysis and Detection Buffer (Cisbio) were added to assay plates, and the plates were incubated at room temperature for 1 h. HTRF measurements were performed using a Pherastar FSX instrument. Acceptor and donor emission signals were measured at 665 nm and 620 nm, respectively, and HTRF ratios were calculated as signal665 nm/signal620 nm×104. Data were normalised to high and low control values and fitted with 4-parameter logistic regression to determine hGPR65 IC50 values for the test compounds, which are shown in Table 1.

T1 sequence (Q8IYL9 whole entry): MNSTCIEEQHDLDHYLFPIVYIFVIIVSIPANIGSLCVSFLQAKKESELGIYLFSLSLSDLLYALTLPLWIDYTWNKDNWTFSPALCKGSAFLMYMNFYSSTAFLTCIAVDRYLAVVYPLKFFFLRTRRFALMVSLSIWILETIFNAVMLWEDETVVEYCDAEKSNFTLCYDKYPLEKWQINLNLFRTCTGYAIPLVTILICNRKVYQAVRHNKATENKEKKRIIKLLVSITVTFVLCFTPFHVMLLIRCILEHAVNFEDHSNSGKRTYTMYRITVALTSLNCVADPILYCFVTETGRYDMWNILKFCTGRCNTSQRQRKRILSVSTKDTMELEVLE

| SMILES | IC50 [nM] |
| --- | --- |
| O=C(Nc1cc(Cl)c(-c2ccc(CC(F)(F)F)nc2)cc1F)N1[C@H]2CC[C@@H]1c1c[nH]c(=O)cc1C2 [Compound 40, (6S,9R)-N-(5-chloro-2-fluoro-4-(6-(2,2,2-trifluoroethyl)pyridin-3-yl)phenyl)-3-oxo-3,5,6,7,8,9-hexahydro-2H-6,9-epiminocyclohepta[c]pyridine-10-carboxamide] | < 500 |
| O=C(Nc1cc(Cl)c(-c2ccc(OCC3CC3(F)F)nc2)cc1F)N1[C@H]2CC[C@@H]1c1ccnc(F)c1C2 (stereo partly drawn) [Compound 14, (5R,8S)-N-(5-chloro-4-(6-((2,2-difluorocyclopropyl)methoxy)pyridin-3-yl)-2-fluorophenyl)-1-fluoro-6,7,8,9-tetrahydro-5H-5,8-epiminocyclohepta[c]pyridine-10-carboxamide] | < 500 |
| O=C(Nc1cc(Cl)c(Cl)cc1OCC1(F)CC1)N1[C@H]2CC[C@@H]1c1n[nH]c(=O)cc1C2 [Compound 89, (6S,9R)-N-(4,5-Dichloro-2-((1-fluorocyclopropyl)methoxy)phenyl)-3-oxo-3,5,6,7,8,9-hexahydro-2H-6,9-epiminocyclohepta[c]pyridazine-10-carboxamide] | > 5000 |
| O=C(Nc1cc(Cl)c(-c2ccc(OCC(F)(F)F)nc2)cc1F)N1[C@@H]2CC[C@H]1C(F)(F)c1c2ccnc1F [Compound 71, (5R,8S)-N-(5-Chloro-2-fluoro-4-(6-(2,2,2-trifluoroethoxy)pyridin-3-yl)phenyl)-1,9,9-trifluoro-6,7,8,9-tetrahydro-5H-5,8-epiminocyclohepta[c]pyridine-10-carboxamide] | < 500 |
| O=C(NC12CC(c3ccc(OCC(F)(F)F)nc3)(C1)C2)N1[C@H]2CC[C@@H]1c1n[nH]c(=O)cc1C2 [Compound 7, (6S,9R)-3-Oxo-N-(3-(6-(2,2,2-trifluoroethoxy)pyridin-3-yl)bicyclo[1.1.1]pentan-1-yl)-3,5,6,7,8,9-hexahydro-2H-6,9-epiminocyclohepta[c]pyridazine-10-carboxamide] | 500 to 5000 |
| O=C(Nc1ccc(-c2ccc(OCC(F)(F)F)nc2)cc1F)N1[C@H]2CC[C@@H]1c1n[nH]c(=O)cc1C2 [Compound 21, (6S,9R)-N-(2-fluoro-4-(6-(2,2,2-trifluoroethoxy)pyridin-3-yl)phenyl)-3-oxo-3,5,6,7,8,9-hexahydro-2H-6,9-epiminocyclohepta[c]pyridazine-10-carboxamide] | < 500 |
| O=C(Nc1cc(Cl)c(-c2ccc(OCC3CC3(F)F)nc2)cc1F)N1[C@H]2CC[C@@H]1c1c[nH]c(=O)cc1C2 (stereo partly drawn) [Compound 38, (6S,9R)-N-(5-chloro-4-(6-((2,2-difluorocyclopropyl)methoxy)pyridin-3-yl)-2-fluorophenyl)-3-oxo-3,5,6,7,8,9-hexahydro-2H-6,9-epiminocyclohepta[c]pyridine-10-carboxamide] | < 500 |
| O=C(Nc1cc(Cl)c(-c2ccc(OCC(F)(F)F)nn2)cc1F)N1[C@H]2CC[C@@H]1c1n[nH]c(=O)cc1C2 [Compound 6, (6S,9R)-N-(5-chloro-2-fluoro-4-(6-(2,2,2-trifluoroethoxy)pyridazin-3-yl)phenyl)-3-oxo-3,5,6,7,8,9-hexahydro-2H-6,9-epiminocyclohepta[c]pyridazine-10-carboxamide] | < 500 |
| O=C(Nc1cc(Cl)c(C(F)(F)F)cc1F)N1[C@H]2CC[C@@H]1c1ccncc1C2 [Compound 50, (5R,8S)-N-(5-chloro-2-fluoro-4-(trifluoromethyl)phenyl)-6,7,8,9-tetrahydro-5H-5,8-epiminocyclohepta[c]pyridine-10-carboxamide] | < 500 |
| CC(C)(C)OC(=O)N1CCC(Oc2ccc(-c3cc(F)c(NC(=O)N4[C@H]5CC[C@@H]4c4c[nH]c(=O)cc4C5)cc3Cl)cn2)C1 (stereo partly drawn) [Compound 25, tert-Butyl 3-((5-(2-chloro-5-fluoro-4-((6S,9R)-3-oxo-3,5,6,7,8,9-hexahydro-2H-6,9-epiminocyclohepta[c]pyridine-10-carboxamido)phenyl)pyridin-2-yl)oxy)pyrrolidine-1-carboxylate] | < 500 |
| O=C(Nc1cc(Cl)c(COc2cccc(OCC(F)(F)F)n2)cc1F)N1[C@H]2CC[C@@H]1c1c[nH]c(=O)cc1C2 [Compound 57, (6S,9R)-N-(5-chloro-2-fluoro-4-(((6-(2,2,2-trifluoroethoxy)pyridin-2-yl)oxy)methyl)phenyl)-3-oxo-3,5,6,7,8,9-hexahydro-2H-6,9-epiminocyclohepta[c]pyridine-10-carboxamide] | < 500 |
| O=C(Nc1cc(Cl)c(-c2ccc(OC3CCOCC3)nc2)cc1F)N1[C@H]2CC[C@@H]1c1n[nH]c(=O)cc1C2 [Compound 84, (6S,9R)-N-(5-Chloro-2-fluoro-4-(6-((tetrahydro-2H-pyran-4-yl)oxy)pyridin-3-yl)phenyl)-3-oxo-3,5,6,7,8,9-hexahydro-2H-6,9-epiminocyclohepta[c]pyridazine-10-carboxamide] | < 500 |
| O=C(Nc1cc(Cl)c(COc2ccc(F)cn2)cc1F)N1[C@H]2CC[C@@H]1c1n[nH]c(=O)cc1C2 [Compound 51, (6S,9R)-N-(5-Chloro-2-fluoro-4-(((5-fluoropyridin-2-yl)oxy)methyl)phenyl)-3-oxo-3,5,6,7,8,9-hexahydro-2H-6,9-epiminocyclohepta[c]pyridazine-10-carboxamide] | < 500 |
| O=C(Nc1cc(Cl)c(-c2ccc3nonc3c2)cn1)N1C2CCC1[C@H](F)c1c2ccnc1F (mixture of isomers) [Compound 5, (±,9S)-N-(5-(benzo[c][1,2,5]oxadiazol-5-yl)-4-chloropyridin-2-yl)-1,9-difluoro-6,7,8,9-tetrahydro-5H-5,8-epiminocyclohepta[c]pyridine-10-carboxamide] | < 500 |
| O=C(Nc1cc(Cl)c(COc2cccc(OCC(F)(F)F)n2)cc1F)N1[C@H]2CC[C@@H]1c1n[nH]c(=O)cc1C2 [Compound 56, (6S,9R)-N-(5-chloro-2-fluoro-4-(((6-(2,2,2-trifluoroethoxy)pyridin-2-yl)oxy)methyl)phenyl)-3-oxo-3,5,6,7,8,9-hexahydro-2H-6,9-epiminocyclohepta[c]pyridazine-10-carboxamide] | < 500 |
| O=C(Nc1cc(Cl)c(-c2ccc(O[C@H]3CCN(CC(F)(F)F)C3)nc2)cc1F)N1[C@H]2CC[C@@H]1c1c[nH]c(=O)cc1C2 (single isomer, unassigned) [Compound 78] | < 500 |
| O=C(Nc1cc(Cl)c(-c2ccc(OC[C@H]3CC3(F)F)nc2)cc1F)N1[C@H]2CC[C@@H]1c1n[nH]c(=O)cc1C2 [Compound 81, (6S,9R)-N-(5-Chloro-4-(6-(((R)-2,2-difluorocyclopropyl)methoxy)pyridin-3-yl)-2-fluorophenyl)-3-oxo-3,5,6,7,8,9-hexahydro-2H-6,9-epiminocyclohepta[c]pyridazine-10-carboxamide] | < 500 |
| O=C(Nc1cc(Cl)c(-c2ccc(OC3CCCC3)nc2)cc1F)N1[C@H]2CC[C@@H]1c1c[nH]c(=O)cc1C2 [Compound 10, (6S,9R)-N-(5-chloro-4-(6-(cyclopentyloxy)pyridin-3-yl)-2-fluorophenyl)-3-oxo-3,5,6,7,8,9-hexahydro-2H-6,9-epiminocyclohepta[c]pyridine-10-carboxamide] | < 500 |
| Cc1nc2cc(-c3cc(F)c(NC(=O)N4[C@H]5CC[C@@H]4c4c[nH]c(=O)cc4C5)cc3Cl)ccc2[nH]1 [Compound 68, (6S,9R)-N-(5-chloro-2-fluoro-4-(2-methyl-1H-benzo[d]imidazol-5-yl)phenyl)-3-oxo-3,5,6,7,8,9-hexahydro-2H-6,9-epiminocyclohepta[c]pyridine-10-carboxamide] | 500 to 5000 |
| O=C(Nc1cc(Cl)c(Cl)cn1)N1C2CCC1[C@H](F)c1c2ccnc1F (mixture of isomers) [Compound 35, (±)(9S)-N-(4,5-dichloropyridin-2-yl)-1,9-difluoro-6,7,8,9-tetrahydro-5H-5,8-epiminocyclohepta[c]pyridine-10-carboxamide] | < 500 |
| CN1CCC(Oc2ccc(-c3cc(F)c(NC(=O)N4[C@H]5CC[C@@H]4c4c[nH]c(=O)cc4C5)cc3Cl)cn2)C1 (stereo partly drawn) [Compound 62] | 500 to 5000 |
